Experiments:
[1] = system: mixed suspension of test germs (bacteria, yeasts, fungi); test: Preserving effect under repeated inoculation in humectant formulation 6940; assay type: cell-based; set-up: key: −=no growth; ++=moderate growth; +++=massive growth
Procedure: B) Humectant Formulation 6940
In accordance with Seppic formulation procedure, without preservative.
(§1) Using the described method, the effectiveness of chemical preservatives is tested with regard to the pack preservation for cosmetic formulations. For this purpose, in various experimental batches, the preservatives to be investigated are added to the unpreserved samples in various concentrations. A continuous germ burden is achieved by periodically inoculating the experimental batches. In parallel to the inoculation, streaks of each of the individual batches are in each case made immediately beforehand. Assessment is made by reference to the microbial growth of the streaks.
The bacteria are streaked uniformly over the entire surface of a CS nutrient medium using a sterile glass rod and incubated for 24 h at 30±1° C. The yeast C. albicans is streaked using a sterile glass rod on a Sabouraud nutrient medium and incubated for 48 h at 30±1° C.
The fungi A. niger and P. funiculosum are streaked using a sterile glass rod on one (A. niger) or two (P. funiculosum) Sabouraud plates (comprising 100 μg/ml of gentamycin and 50 μg/ml of chloramphenicol) and incubated for 7 to 14 days at 25±2° C.
To prepare the mixed suspensions, the bacteria, per strain one plate, are rinsed off with 5 ml of a sterile 0.85% NaCl solution per CSA plate, (sterile) filtered through a sterile glass funnel containing glass wool and made up to 150 ml with 0.85% NaCl solution. This bacteria suspension has a titre of ˜10^10 CFU/ml.
The yeast C. albicans is likewise rinsed off with 10 ml of sterile 0.85% NaCl solution from a Sabouraud plate and (sterile) filtered through a sterile glass funnel containing glass wool. 10 ml of each of the fungi suspensions (A. niger and P. funiculosum) prepared as described above are added to this suspension. 3 ml of the bacteria suspension prepared as described above (titre ˜10^10 CFU/ml) are added. The resulting mixed suspension is made to 150 ml with sterile 0.85% NaCl solution.
The bacteria titre of the mixed suspension is ˜10^8 CFU/ml. The titre for C. albicans in the mixed suspension is ˜10^8 CFU/ml. The titre for A. niger and P. funiculosum in the mixed suspension is ˜10^6 CFU/ml.
In separate batches, 25 or 50 g of the material to be preserved are in each case admixed with varying concentrations of the preservative to be investigated. The growth control used in each case is an unpreserved product sample.
The test batches are streaked onto CS and Sabouraud nutrient media once per week, the first streaking being carried out directly prior to reinoculation; these batches are then inoculated with the mixed suspension (in the case of 25 g samples with 0.1 ml, in the case of 50 g samples with 0.2 ml). The inoculated samples are incubated at 25° C.±2° C. over the entire experimentation period.
The microbial growth of the streaks incubated at 25° C.±2° C. is assessed after 3 to 4 days. To be on the safe side, negative streaks are observed for a further 2 days and reassessed. The preserving effect of the individual product concentrations is assessed in a semiquantitative method by means of the growth of the individual streaks according to the grading from “−” via “+” to “+++”. The test is usually carried out over 6 inoculation cycles or terminated after massive growth (+++) on two occasions.
(§2) If even after five successive inoculation cycles growth can be detected neither in the preserved samples nor in the unpreserved product sample (blank value), then the inoculation in the sixth inoculation cycle is carried out with five times the amount of the mixed suspension (0.5 ml in the case of 25 g samples, 1 ml in the case of 50 g samples).
A preservative is considered good if it exists under the laboratory conditions given above for a period of 6 weeks without germ infestation of the sample batches, i.e. even after the sixth inoculation, no microbial growth can be detected.

[2] = system: mixed suspension of test germs (bacteria, yeasts, fungi); test: Preserving effect under repeated inoculation in the standard gel; assay type: cell-based; set-up: key: −=no growth; −=slight growth; ++=moderate growth; +++=massive growth; settings: preservative 0.1%
Procedure: CARBOPOL is dispersed in glycerol. In batches, the water and then NaOH are added thereto. The gel immediately becomes thick.
as §1, with “streaks. […]” for “streaks.”
The microbial growth of the streaks incubated at 25° C.±2° C. is assessed after 3 to 4 days. […] The preserving effect of the individual product concentrations is assessed in a semiquantitative method by means of the growth of the individual streaks according to the grading from “−” via “+” to “+++”. […]
as §2, with “samples). […]” for “samples).”

## CCCCC(CC)COCC(O)CO (centres unmarked) [SENSIVA, 1-(2-ethylhexyl) glycerol ether]
[1]; formulation 6940, preservative 0.1%, 4 days
  microbial growth of the streaks: −
[1]; formulation 6940, preservative 0.1%, 10 days
  microbial growth of the streaks: +++
[1]; formulation 6940, preservative 0.1%, 17 days
  microbial growth of the streaks: +++
[1]; formulation 6940, preservative 0.2%, 4 days
  microbial growth of the streaks: −
[1]; formulation 6940, preservative 0.2%, 10 days
  microbial growth of the streaks: +++
[1]; formulation 6940, preservative 0.2%, 17 days
  microbial growth of the streaks: +++
[1]; formulation 6940, preservative 0.3%, 4 days
  microbial growth of the streaks: −
[1]; formulation 6940, preservative 0.3%, 10 days
  microbial growth of the streaks: +++
[1]; formulation 6940, preservative 0.3%, 17 days
  microbial growth of the streaks: +++
[2]; 10 days
  microbial growth of the streaks: +++
[2]; 17 days
  microbial growth of the streaks: +++

From US8076363B2, “Isothiazolone-containing preservative with improved effectiveness” (Air Liquide Sante (International), priority 2005, dated 2011)
